These results are taken from ChEMBL document CHEMBL1201862, “PubChem BioAssay data set” (2004).

Structures are written as SMILES.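 Where inhibition never reached the appropriate level, the endpoint shown equals the highest concentration tested. Otherwise, values were interpolated linearly from a five-concentration, 48-hour dose response in 96-well plates. The concentration for 50% growth inhibition is given as GI50.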 The source made the active and inactive calls. No stated cut-off is given here; in the data, active = GI50 up to about 1.1 µM and inactive = higher.

Among the test systems are A498; CCRF-CEM; COLO 205; EKVX; HCC 2998; HCT-116; HL-60; K562; KM12; MDA-MB-435; Malme-3M; NCI-H226; NCI-H522; OVCAR-3; OVCAR-4; RXF 393; SF-295; TK-10; UACC-257; MOLT-4.
Holding throughout (experiment): NCI anticancer screen, dose series, 48 h

In the case of `CCC(N)(C(=O)O)C(C)C` (centres undefined), the GI50 in the assay on A498, in the assay with CCRF-CEM, in the assay with COLO 205, with EKVX, in the assay on HCC 2998 and in the assay on HCT-116 was > 100 µM (inactive) in each case. The GI50 in the assay on HL-60, in the assay with K562, in the assay on KM12, in the assay with MDA-MB-435, in the assay on Malme-3M and in the assay with NCI-H226 was > 100 µM (inactive) throughout. The GI50 in the assay on NCI-H522, with OVCAR-3, with OVCAR-4, with RXF 393, with SF-295 and in the assay on TK-10 was > 100 µM (inactive) each time. Besides, in the assay with UACC-257, the GI50 is > 100 µM (inactive).
As to `Nc1nc(Cl)cc(OCC2(CO)CC=CC2)n1`, the GI50 in the assay with A498 is 90.6 µM (inactive); with CCRF-CEM, > 100 µM (inactive); in the assay on EKVX it was > 100 µM (inactive); in the assay on HCC 2998, > 100 µM (inactive); in the assay on HCT-116, > 100 µM (inactive); in the assay with HL-60 it was > 100 µM (inactive). Besides, the GI50 with K562 was 95.7 µM (inactive); in the assay with MDA-MB-435 it was > 100 µM (inactive); in the assay with MOLT-4, > 100 µM (inactive); in the assay on Malme-3M, > 100 µM (inactive); in the assay with NCI-H226, > 100 µM (inactive); with NCI-H522, > 100 µM (inactive). Moreover, the GI50 in the assay on OVCAR-3, with OVCAR-4, in the assay on RXF 393, with SF-295, in the assay with TK-10 and in the assay on UACC-257 was > 100 µM (inactive) in each case.
As for `Cc1ccc(-n2cc(-c3ccc(Cl)cc3)c(C#N)c2N)cc1`, the GI50 is 18.4 µM (inactive) with A498; 15.5 µM (inactive) in the assay on CCRF-CEM; 14.1 µM (inactive) with COLO 205; 15.2 µM (inactive) in the assay on EKVX; 14.9 µM (inactive) with HCC 2998; 14 µM (inactive) in the assay with HCT-116. Further, the GI50 with HL-60 is 4.1 µM (inactive); in the assay with K562, 16.6 µM (inactive); in the assay on MDA-MB-435 it was 17.3 µM (inactive); in the assay with Malme-3M it was 18 µM (inactive); in the assay with NCI-H226, 12.8 µM (inactive); in the assay with NCI-H522, 12.1 µM (inactive). Moreover, the GI50 was 15.6 µM (inactive) in the assay with OVCAR-3; 14.3 µM (inactive) with OVCAR-4; 10.5 µM (inactive) in the assay on RXF 393; 17.5 µM (inactive) in the assay on SF-295; 14.7 µM (inactive) in the assay with TK-10; 14.8 µM (inactive) in the assay on UACC-257.
Turning to `O=Nc1ccc(O)c2ncccc12`, the GI50 was 18.5 µM (inactive) in the assay on A498; 0.611 µM (active) in the assay on CCRF-CEM; 16.1 µM (inactive) in the assay with COLO 205; 0.525 µM (active) in the assay with EKVX; 15.6 µM (inactive) in the assay with HCC 2998; 0.822 µM (active) in the assay on HCT-116. For the same compound, the GI50 in the assay with HL-60 is 0.581 µM (active); in the assay on K562 it was 0.711 µM (active); in the assay with KM12 it was 5.19 µM (inactive); in the assay with MDA-MB-435 it was 1.26 µM (inactive); with Malme-3M it was 11.8 µM (inactive); with NCI-H226, 19.6 µM (inactive). Also, the GI50 is 1.43 µM (inactive) with NCI-H522; 3.33 µM (inactive) in the assay on OVCAR-3; 11.6 µM (inactive) in the assay with OVCAR-4; 1.67 µM (inactive) with RXF 393; 8.05 µM (inactive) with SF-295; 14.8 µM (inactive) in the assay with TK-10. In addition, the GI50 with UACC-257 was 6.37 µM (inactive).
